Measured values from patent publication US20080009538A1, “Methods and compositions for the treatment of urinary incontinence” (priority 2005, published 2008).
Counter-ions that a name gives are not always drawn. Like-named read-outs stand apart in the source and are kept apart here.

Experiments:
[1] = target: α1 adrenergic receptor; assay: α1 adrenergic receptor [3H]prazosin binding, rat cerebral cortex preparation; conditions: [3H]prazosin 0.25 nM, 60 min at 22° C., read-out: Inhibition of radioligand binding, affinity (Ki)
Experimental: At the end of 60 min, the assay was terminated by vacuum filtration and the amount of radioactivity deposited on the filter measured by scintillation counting.
(§2) Ki=inhibitory constant defined as IC50/L+KD; IC50=concentration of bicifadine HCl that inhibits 50% of the maximal response; L=concentration of radioligand added; KD, dissociation constant of the radioligand at equilibrium.

[2] = target: T1, 5-HT2A receptor (Homo sapiens, UniProt P28223); assay: 5-HT2A receptor [3H]LSD binding screen, recombinant receptors in CHO cells; conditions: [3H]LSD 1.2 nM, recombinant human 5-HT2A in CHO cells, 37° C., 30 min, read-out: inhibition of radioligand binding
T1 construct: expressed in transfected cells; host or cells: CHO cells
T1 sequence (P28223 whole entry): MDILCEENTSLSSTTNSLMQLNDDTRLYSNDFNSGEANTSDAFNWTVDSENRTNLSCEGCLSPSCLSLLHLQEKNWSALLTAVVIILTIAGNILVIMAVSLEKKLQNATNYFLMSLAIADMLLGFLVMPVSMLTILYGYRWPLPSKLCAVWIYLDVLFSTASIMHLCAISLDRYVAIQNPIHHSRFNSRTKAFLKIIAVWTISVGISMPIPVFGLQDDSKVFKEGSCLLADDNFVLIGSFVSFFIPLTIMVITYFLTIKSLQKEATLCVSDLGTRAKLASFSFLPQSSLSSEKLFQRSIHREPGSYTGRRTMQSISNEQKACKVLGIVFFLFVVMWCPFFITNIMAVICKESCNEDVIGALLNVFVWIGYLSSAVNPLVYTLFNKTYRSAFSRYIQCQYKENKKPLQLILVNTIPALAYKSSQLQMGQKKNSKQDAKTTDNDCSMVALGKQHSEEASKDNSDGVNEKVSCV

[3] = target: T2, norepinephrine transporter protein (Homo sapiens, UniProt P23975); assay: [3H]norepinephrine uptake in HEK 293 cells expressing the transporter; assay type: cell-based; conditions: recombinant human norepinephrine transporter, 20 nM [3H]norepinephrine, read-out: inhibition of [3H]Norepinephrine uptake (IC50)
T2 construct: expressed in transfected cells; host or cells: HEK 293 cells
T2 sequence (P23975 whole entry): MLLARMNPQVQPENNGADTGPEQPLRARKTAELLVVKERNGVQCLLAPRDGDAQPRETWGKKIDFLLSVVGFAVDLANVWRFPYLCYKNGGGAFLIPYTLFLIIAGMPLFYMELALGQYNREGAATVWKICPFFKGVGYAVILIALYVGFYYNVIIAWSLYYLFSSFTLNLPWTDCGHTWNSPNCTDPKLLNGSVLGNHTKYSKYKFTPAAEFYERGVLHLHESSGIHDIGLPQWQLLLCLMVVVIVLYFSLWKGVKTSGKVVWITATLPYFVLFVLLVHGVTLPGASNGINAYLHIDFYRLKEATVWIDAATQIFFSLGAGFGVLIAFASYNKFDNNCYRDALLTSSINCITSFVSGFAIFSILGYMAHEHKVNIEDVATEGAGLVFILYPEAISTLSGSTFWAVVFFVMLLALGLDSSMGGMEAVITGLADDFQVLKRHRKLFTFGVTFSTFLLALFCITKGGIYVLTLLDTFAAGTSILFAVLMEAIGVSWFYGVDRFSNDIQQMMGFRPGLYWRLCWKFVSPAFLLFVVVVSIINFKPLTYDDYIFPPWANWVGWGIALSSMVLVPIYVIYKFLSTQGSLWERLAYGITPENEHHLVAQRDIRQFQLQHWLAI
Experimental: (§1) The effects bicifadine on [^3H]norepinephrine and [^3H]serotonin uptake were measured in HEK 293 cells expressing the recombinant human forms of the norepinephrine and serotonin transporter proteins, respectively using a modification of the techniques described by Eschleman, et al., (1999). Cells were grown on 150-mm-diameter tissue culture dishes until confluent. Medium was removed from the plates and the cells were washed twice with Ca^2+, Mg^2+-free PBS. Fresh Ca^2+, Mg^2+-free PBS (2.5 ml) was then added to each plate and the plates were placed in a 25° C. water bath for 5 min. The cells were then gently scraped from the plates, and cell clusters were separated by trituration with a pipette for 5 to 10 aspirations and ejections. Aliquots (50 μl) of the suspended cells were then added to assay tubes (in triplicate) containing various concentrations of bicifadine and Krebs-HEPES assay buffer in a final assay volume of 0.5 ml. Following a 10-min pre-incubation in a 25° C. water bath, [^3H]norepinephrine or serotonin (20 nM final concentration) was added, and the assay was incubated for 10 min. The reaction was terminated by filtration through Wallac filtermat A filters presoaked in 0.05% polyethylenimine, using a Tomtec cell harvester. Scintillation fluid was then added to each filtered spot, and radioactivity remaining on the filters was determined by scintillation counting. […]

[4] = target: T3, serotonin transporter protein (Homo sapiens, UniProt P31645); assay: [3H]serotonin uptake in HEK 293 cells expressing the transporter; assay type: cell-based; conditions: recombinant human serotonin transporter, 20 nM [3H]serotonin, read-out: inhibition of [3H]Serotonin uptake (IC50)
T3 construct: expressed in transfected cells; host or cells: HEK 293 cells
T3 sequence (P31645 whole entry): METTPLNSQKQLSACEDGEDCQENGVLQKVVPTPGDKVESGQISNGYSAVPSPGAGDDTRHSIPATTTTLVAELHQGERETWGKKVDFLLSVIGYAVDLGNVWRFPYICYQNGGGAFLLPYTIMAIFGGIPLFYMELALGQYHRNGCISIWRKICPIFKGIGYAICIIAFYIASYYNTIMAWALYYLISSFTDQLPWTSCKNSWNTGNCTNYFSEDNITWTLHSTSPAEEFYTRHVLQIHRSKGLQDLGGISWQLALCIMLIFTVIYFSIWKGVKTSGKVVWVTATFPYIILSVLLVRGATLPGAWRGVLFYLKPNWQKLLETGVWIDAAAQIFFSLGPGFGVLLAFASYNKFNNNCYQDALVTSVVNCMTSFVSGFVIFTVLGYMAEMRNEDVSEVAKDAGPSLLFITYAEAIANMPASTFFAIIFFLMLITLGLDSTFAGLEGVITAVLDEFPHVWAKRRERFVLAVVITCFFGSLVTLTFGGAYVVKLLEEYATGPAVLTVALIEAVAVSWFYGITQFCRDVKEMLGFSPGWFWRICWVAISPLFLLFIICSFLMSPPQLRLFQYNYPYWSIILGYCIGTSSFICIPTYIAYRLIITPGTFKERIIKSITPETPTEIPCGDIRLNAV
Experimental: as §1

[5] = system: Adult cats; assay: Dilute acetic acid bladder model in anesthetized cats (cystometrogram); assay type: in vivo, cat; conditions: i.v., during 0.5% acetic acid infusion
Experimental: Adult cats (male and female) were anesthetized with α-chloralose (50-75 mg/kg i.v.) A cannula was inserted into the trachea to maintain a clear airway. One catheter was inserted into the carotid artery to measure systemic blood pressure, and another was placed into the radial vein for injecting bicifadine hydrochloride. All doses of bicifadine hydrochloride were based on body weight.
Electromyography electrodes were placed in the periurethral striated muscle. A catheter was inserted through the dome of the bladder and was used to infuse either saline for the control or dilute (0.5%) acetic acid into the test cats. The catheter was also used to record bladder pressure during each voiding cystometrogram. After bladder capacity was established using the saline infusion, cysometrograms were taken after an infusion of dilute acetic acid and changes in bladder capacity were recorded. […] Fluid release during micturition was measured by collecting the fluid in a cylinder attached to a force transducer.
On reaching micturition threshold, acetic acid infusion of the bladder was continued, resulting in rhythmic micturition contractions throughout the infusion period. During this time of rhythmic bladder activity, either vehicle as the control or bicifadine hydrochloride was administered. Five minutes after each administration of bicifadine hydrochloride, the bladder was emptied and another cystometrogram was performed. This procedure was repeated with increasing doses of bicifadine hydrochloride.
Under control conditions, rapid increases in intravessicular pressure were recorded after infusion of 5.3±0.6 ml saline into an initially empty bladder. Bladder capacity was reached after infusion of approximately 10.5 ml of saline. When acetic acid was infused, bladder capacity was reduced by more than half. […] Normal time to contraction following instillation of saline into the bladder is approximately 1286 seconds.

[6] = system: Female rats; assay: Dilute acetic acid model in rats (filling cystometry); assay type: in vivo, rat; conditions: intraduodenal, 0.25% acetic acid continuous irritation
Source text: Additional animal models for evaluating efficacy of bicifadine as an anti-incontinence drug include a widely accepted rat model predictive of anti-incontinence drug activity in humans. Female rats (250-275 g BW, n=8) are anesthetized with urethane (1.2 g/kg) and a saline-filled catheter is inserted into the proximal duodenum for intraduodenal drug administration. A flared-tipped catheter is inserted into the bladder dome, via a midline lower abdominal incision, for bladder filling and pressure recording, and secured by ligation. Electromyography elctrodes are inserted into the external urethral sphincter percutaneously.
In the control, saline is continuously infused at a rate of about 0.055 ml/min via the bladder filling catheter for about 60 minutes to obtain a baseline of lower urinary tract activity. […] Bladder capacity (ml) is calculated as the flow rate of the bladder filling solution […] multiplied by the elapsed time between commencement of bladder filling and occurrence of bladder contraction (min).
Following the control period, a 0.25% acetic acid solution in saline is infused into the bladder to induce bladder irritation. […] Following injection of the third vehicle control, bladder capacity is again measured using acetic acid to fill the bladder. […]

[7] = system: Adult female guinea pigs; assay: Urethral function in guinea pigs (external urethral sphincter EMG); assay type: in vivo, guinea pig; conditions: intravenous, normal bladder filling, versus no drug or vehicle
Source text: Yet another animal model for evaluating efficacy of bicifadine as an anti-incontinence drug is a widely accepted guinea pig model, also predictive of anti-incontinence drug activity in humans. Adult female guinea pigs, weighing 620-707 g, are initially anesthetized with halothane and maintained with urethane. A cannula is inserted into the trachea, a jugular vein and a carotid artery for respiratory ventilation, injection of the test compound and monitoring of the blood pressure, respectively. A midline laporatomy is performed to expose the urinary bladder and a cystometry tube is inserted through a small incision in the dome of the bladder. The abdominal wound is closed tightly around the externalized cystometry tube, which is connected to an infusion pump and pressure transducer, for filling the bladder and recording intravesical pressure. Electromyographic electrodes are inserted into the striated muscles of the external urethral sphincter.
The bladder is filled at a rate of 150 μl/min^−1 with saline until initiation of a micturition reflex. […]
The bladder is then filed to 75% of the threshold volume with saline and weights are positioned on the ventral surface of the abdomen of the animal just rostral to the position of the bladder. […] Electromyographic activity and intravesical pressure are recorded while weights are applied to the abdomen. […]

[8] = system: Female rats; assay: Neurogenic overactive bladder in spinal cord transected rats; assay type: in vivo, rat; conditions: versus no drug or vehicle
Experimental: The spinal cord is transected and the intervening space filled with Gelfoam. The overlying muscle layers and skin are sequentially closed with suture, and the animals are treated with antibiotic (100 mg/kg ampicillin s.c.) Residual urine is expressed prior to returning the animals to their cages, and thereafter 3 times daily until terminal experimentation four weeks later. On the day of the experiment, the animals are anesthetized with isofluorane (4%) and a jugular catheter is inserted for access to the systemic circulation and tunneled subcutaneously to exit through the midscapular region. Via a midline abdominal incision, a catheter with a fire-flared tip is inserted into the dome of the bladder through a small cystotomy and secured by ligation for bladder filling and pressure recording. Electrodes are inserted percutaneously into the external urethral sphincter for electromyography readings. […]
Following a 60-90 minute control period of normal saline infusion (0.100-0.150 ml/min) to collect baseline continuous open cystometric data, the pump is turned off, the bladder is emptied, the pump turned back on, and bladder capacity is estimated by a filling cystometrogram. […] Following the third administration of vehicle control, bladder capacity is again measured through a cystometrogram. […] Bladder capacity is measured as described above at 20 minutes following each subsequent drug treatment.

[9] = Blood pressure in human subjects; assay type: in vivo
[10] = target: α2 adrenergic receptor; assay: α2 adrenergic receptor [3H]RX 821002 binding, rat cerebral cortex preparation
Experimental: This assay was conducted by incubating the rat cortex preparation with a 0.5 nM concentration of [^3H]RX 821002 for 30 min at 22° C. in the presence of either 0.1, 0.3, 1, 3, or 10 μM concentrations bicifadine HCl. Unlabelled (−)epinephrine (100 μM) was used to determine nonspecific binding. The assay was terminated by vacuum filtration, and the amount of radiolabeled receptor retained by the filter measured by scintillation counting. […] Recombinant human 5-HT2A receptors expressed in CHO cells were incubated with bicifadine HCl (0.1, 1 or 10 μM) and [^3H]LSD (1.2 nM) at 37° C. for 30 min (Bonhaus 1995). Serotonin (10 μM) was used to determine nonspecific binding.
as §2

Ki [1] [nM] | inhibition at 10 µM [2] [%] | IC50 [3] [nM] | IC50 [4] [nM] | Ki ([10]; read-out: Inhibition of radioligand binding, affinity (Ki), [3H]RX 821002 0.5 nM, 30 min at 22° C., hydrochloride) [nM] | Ki ([10]; read-out: Inhibition of radioligand binding, affinity (Ki), [3H]RX 821002 0.5 nM, 30 min at 22° C., listed as bicifadine, hydrochloride) [nM] | Compound | bladder activity [5] | bladder capacity [5] | time to contraction (latency to bladder contraction) [5] | bladder capacity [6] | electromyographic activity of external urethral sphincter [7] | bladder capacity [8] | alterations in blood pressure [9]
1000 | 82 | 54.7 | 117 | 610 | 600 | Cc1ccc([C@]23CNC[C@H]2C3)cc1 (racemic) [Bicifadine HCl, (±)-1-(4-methylphenyl)-3-azabicyclo[3.1.0]hexane hydrochloride] | pronounced inhibition of bladder activity | increased bladder capacity to near control conditions | increased the time to contraction | increase in bladder capacity | increase in electromyographic activity | increase in bladder capacity | did not cause significant alterations in blood pressure
 |  |  |  |  |  | Cc1ccc(C23CNCC2C3)cc1.Cl (single isomer, unassigned; (+)) [(+)-bicifadine HCl, (+)-1-(p-Tolyl)-3-azabicyclo[3.1.0]hexane hydrochloride] | pronounced inhibition of bladder activity | increased bladder capacity to near control conditions | increased the time to contraction |  |  |  | 
